Test results published in PubChem BioAssay AID1259407 (Chemical Carcinogenesis Research Information System (CCRIS), 2018).
Active and inactive are the calls of the source. How the calls were made is not given here.

Test system: CCRIS mutagenicity, Ames/micronucleus/aberration tests
Assay: CCRIS mutagenicity studies

CCCCCCOC(=O)c1ccccc1C(=O)OCCCCCC was tested, and the mutagenic call (Test System: AMES SALMONELLA TYPHIMURIUM, Strain/Indicator: TA98, Metabolic Activation: HAMSTER, LIVER, S-9, AROCLOR 1254 (10%), Method: PREINCUBATION) was “inactive; negative”, the mutagenic call (Test System: AMES SALMONELLA TYPHIMURIUM, Strain/Indicator: TA98, Metabolic Activation: NONE, Method: PREINCUBATION) was “inactive; negative” and the mutagenic call (Test System: AMES SALMONELLA TYPHIMURIUM, Strain/Indicator: TA98, Metabolic Activation: RAT, LIVER, S-9, AROCLOR 1254 (10%), Method: PREINCUBATION) was “inactive; negative”. The mutagenic call (Test System: AMES SALMONELLA TYPHIMURIUM, Strain/Indicator: TA100, Metabolic Activation: HAMSTER, LIVER, S-9, AROCLOR 1254 (10%), Method: PREINCUBATION) was “inactive; negative”, the mutagenic call (Test System: AMES SALMONELLA TYPHIMURIUM, Strain/Indicator: TA100, Metabolic Activation: NONE, Method: PREINCUBATION) was “inactive; negative” and the mutagenic call (Test System: AMES SALMONELLA TYPHIMURIUM, Strain/Indicator: TA100, Metabolic Activation: RAT, LIVER, S-9, AROCLOR 1254 (10%), Method: PREINCUBATION) was “inactive; negative”. The mutagenic call (Test System: AMES SALMONELLA TYPHIMURIUM, Strain/Indicator: TA1535, Metabolic Activation: HAMSTER, LIVER, S-9, AROCLOR 1254 (10%), Method: PREINCUBATION) was “inactive; negative”, the mutagenic call (Test System: AMES SALMONELLA TYPHIMURIUM, Strain/Indicator: TA1535, Metabolic Activation: NONE, Method: PREINCUBATION) was “inactive; negative” and the mutagenic call (Test System: AMES SALMONELLA TYPHIMURIUM, Strain/Indicator: TA1535, Metabolic Activation: RAT, LIVER, S-9, AROCLOR 1254 (10%), Method: PREINCUBATION) was “inactive; negative”. For the same molecule, the mutagenic call (Test System: AMES SALMONELLA TYPHIMURIUM, Strain/Indicator: TA1537, Metabolic Activation: HAMSTER, LIVER, S-9, AROCLOR 1254 (10%), Method: PREINCUBATION) was “inactive; negative”, the mutagenic call (Test System: AMES SALMONELLA TYPHIMURIUM, Strain/Indicator: TA1537, Metabolic Activation: NONE, Method: PREINCUBATION) was “inactive; negative” and the mutagenic call (Test System: AMES SALMONELLA TYPHIMURIUM, Strain/Indicator: TA1537, Metabolic Activation: RAT, LIVER, S-9, AROCLOR 1254 (10%), Method: PREINCUBATION) was “inactive; negative”.
In the case of O=C1c2ccccc2CN2C(=O)c3ccccc3CN12, the mutagenic call (Test System: AMES SALMONELLA TYPHIMURIUM, Strain/Indicator: TA98, Metabolic Activation: MOUSE, LIVER, S-9, PHENOBARBITAL AND 5,6-BENZOFLAVONE, Method: STANDARD PLATE) is reported as “inactive; negative”, the mutagenic call (Test System: AMES SALMONELLA TYPHIMURIUM, Strain/Indicator: TA98, Metabolic Activation: NONE, Method: STANDARD PLATE) is reported as “inactive; negative” and the mutagenic call (Test System: AMES SALMONELLA TYPHIMURIUM, Strain/Indicator: TA100, Metabolic Activation: MOUSE, LIVER, S-9, PHENOBARBITAL AND 5,6-BENZOFLAVONE, Method: STANDARD PLATE) is reported as “inactive; negative”. For the same molecule, the mutagenic call (Test System: AMES SALMONELLA TYPHIMURIUM, Strain/Indicator: TA100, Metabolic Activation: NONE, Method: STANDARD PLATE) was “inactive; negative”, the mutagenic call (Test System: AMES SALMONELLA TYPHIMURIUM, Strain/Indicator: TA102, Metabolic Activation: MOUSE, LIVER, S-9, PHENOBARBITAL AND 5,6-BENZOFLAVONE, Method: STANDARD PLATE) was “inactive; negative” and the mutagenic call (Test System: AMES SALMONELLA TYPHIMURIUM, Strain/Indicator: TA102, Metabolic Activation: NONE, Method: STANDARD PLATE) was “inactive; negative”.
With CN(CCC#N)c1ccc(N=Nc2ccc3ncsc3c2)cc1 the mutagenic call (Test System: AMES SALMONELLA TYPHIMURIUM, Strain/Indicator: TA98, Metabolic Activation: RAT, LIVER, S-9, AROCLOR, Method: PREINCUBATION) was “active; positive” and the mutagenic call (Test System: AMES SALMONELLA TYPHIMURIUM, Strain/Indicator: TA98, Metabolic Activation: RAT, LIVER, S-9, AROCLOR, Method: STANDARD PLATE) was “active; positive”.
For CC1(C)COCN1, the mutagenic call (End Point: In vitro chromosomal aberrations, Test System: Chinese hamster ovary (CHO) cells, Metabolic Activation: None) was “active; positive”, the mutagenic call (End Point: In vitro chromosomal aberrations, Test System: Chinese hamster ovary (CHO) cells, Metabolic Activation: S-9) was “active; positive” and the mutagenic call (Test System: Mouse lymphoma, Strain/Indicator: L5178Y (TK+/TK-), Metabolic Activation: None, Method: Not specified by DPR) was “active; positive (purity 78%)”. For the same molecule, the mutagenic call (Test System: Mouse lymphoma, Strain/Indicator: L5178Y (TK+/TK-), Metabolic Activation: S-9, Method: Not specified by DPR) was “active; positive (purity 78%)”.
For Cc1c(N)ccc(N=Nc2ccccc2)c1N, the mutagenic call (Test System: AMES SALMONELLA TYPHIMURIUM, Strain/Indicator: TA100, Metabolic Activation: HUMAN, LIVER, S-9, Method: PREINCUBATION) was “active; positive”, the mutagenic call (Test System: AMES SALMONELLA TYPHIMURIUM, Strain/Indicator: TA100, Metabolic Activation: RAT, LIVER, S-9, BETA-NAPHTHOFLAVONE, Method: PREINCUBATION) was “active; positive” and the mutagenic call (Test System: AMES SALMONELLA TYPHIMURIUM, Strain/Indicator: TA100, Metabolic Activation: RAT, LIVER, S-9, PHENOBARBITAL, Method: PREINCUBATION) was “active; positive”. The mutagenic call (Test System: AMES SALMONELLA TYPHIMURIUM, Strain/Indicator: TA100, Metabolic Activation: RAT, LIVER, S-9, Method: PREINCUBATION) was “active; positive” and the mutagenic call (Test System: UDS RODENT HEPATOCYTES, Strain/Indicator: THY INCORP, Metabolic Activation: NONE, Method: AUTORADIOGRAPHY) was “active; positive”.
